How the values were obtained:
[1] = tested on: cytotoxic T lymphocyte activity; settings: TRIP 50 mg/kg daily oral 16 days + PV
Method: Effects of short-course TRIP dosing regimens on cytotoxic T lymphocyte activity. Average target cell apoptosis percentages (+SEM) were assessed in control (n=10), one cycle of PV (n=11), short-course TRIP (16 days; 10 mg/kg, TRIP 10; 50 mg/kg, TRIP 50; n=11), and PV+TRIP combination (n=11) treatment groups. PV=peptide vaccine; *p<0.05.
A total of 65 male human MUC1.Tg C57BL/6 mice underwent urethane lung tumor induction as described (Wurz G T. et al., J. Transl. Med., 11:64 (2013)) starting at approximately five weeks of age. In Week 20, six weeks after the last dose of urethane, mice were randomized into six treatment groups of approximately equal average weight: Control (n=10); TRIP (i.e., ospemifene) 10 mg/kg (n=11); TRIP 50 mg/kg (n=11); tecemotide (L-BLP25) peptide vaccine (PV) alone (n=11); TRIP 10 mg/kg+PV (n=11); and TRIP 50 mg/kg+PV (n=11). Starting in Week 20, all mice in the PV treatment groups were administered eight weekly 10 μg doses by subcutaneous (s.c.) injection (100 μl) at rotating sites using a 25-gauge needle. […]
Average target cell apoptosis percentages (+SEM) were assessed in control (n=10), one cycle of PV (n=11), short-course TRIP (16 days; 10 mg/kg, TRIP 10; 50 mg/kg, TRIP 50; n=11), and PV+TRIP combination (n=11) treatment groups. […]

[2] = tested on: regulatory T cells (Tregs); experiment: Experiment 5: regulatory T cells (FoxP3+/CD4+) by flow cytometry; format: in vivo, human MUC1.Tg C57BL/6 mice; settings: TRIP 100 mg/kg or letrozole 0.8 mg/kg daily oral 14 days
Method: (§1) A total of 32 female human MUC1.Tg C57BL/6 mice, starting at approximately six weeks of age, were treated with urethane as described (Wurz G T. et al., J. Transl. Med., 11:64 (2013)). Two weeks following the final dose of urethane (Week 17), the mice were randomized into four treatment groups of approximately equal average weight (n=8, all groups): Control (no treatment); TRIP (i.e., ospemifene) 100 mg/kg; estradiol 25 μg/kg; and letrozole 0.8 mg/kg. TRIP and letrozole were prepared in DMSO and peanut oil as described above in Experiment 2 and administered daily for 14 days by oral gavage (100 μL). Estradiol was dissolved in 100% ethanol, diluted in PBS to achieve the desired concentration, and then administered daily for 14 days by s.c. injection at rotating sites using a 25-gauge needle. In Week 19, the study was terminated, 24 hours after the last treatments, and serum and spleens were collected for surface marker and Treg analyses.
(§2) After two weeks of treatment, lymphocytes were isolated from spleen. T-cell surface markers (CD4, CD8, PD-1, CD28) and regulatory T cells (Tregs) were analyzed by flow cytometry.

IFN-γ [3] = experiment: Experiment 4: IFN-γ ELISpot after short-course TRIP and PV in lung tumor-bearing mice; format: in vivo, human MUC1.Tg C57BL/6 mice; settings: short-course (16-day) TRIP 10 or 50 mg/kg + one cycle of PV
Method: Effect of short-course (16-day) TRIP treatment on IFN-γ immune response. […] Lymphocytes were isolated following treatment with one cycle of PV, TRIP 10 mg/kg, TRIP 50 mg/kg, or combinations (n=10-11). PV=peptide vaccine.
A total of 65 male human MUC1.Tg C57BL/6 mice underwent urethane lung tumor induction as described (Wurz G T. et al., J. Transl. Med., 11:64 (2013)) starting at approximately five weeks of age. […] Starting in Week 20, all mice in the PV treatment groups were administered eight weekly 10 μg doses by subcutaneous (s.c.) injection (100 μl) at rotating sites using a 25-gauge needle. […] All other mice received daily oral doses of the control solution. Twenty-four hours after the final dose of TRIP and 48 hours after the last dose of PV (Week 27), all mice were euthanized for the collection of serum and spleens, which were processed appropriately for ELISpot and CTL assays. For the ELISpot assay, n=4-5.

IFN-γ [4] = settings: at 20 weeks (30 days), 5-mg/kg TRIP dose level
Method: Average serum IFN-γ concentrations following daily oral TRIP treatment for 30 (Week 20), 60 (Week 24), and 90 (Week 28) days at the indicated doses (mg/kg). Serum was analyzed by multiplex immunoassay 24 hours after the final TRIP dose at each time point.
Following induction of lung cancer as described (Wurz G T. et al., J. Transl. Med., 11:64 (2013)), mice were randomized into four treatment groups: Control; and TRIP (i.e., ospemifene) 5, 25, and 50 mg/kg (n=12, all groups). TRIP and control solutions were orally administered by gavage according to treatment group. After 30 days of treatment (Week 20), a total of 16 mice, four from each treatment group, were euthanized, and whole blood was collected by cardiac puncture. The remaining mice continued daily TRIP treatments. An additional 16 mice, four from each treatment group, were euthanized following 60 (Week 24) and 90 (Week 28) days of treatment, and whole blood and livers were collected. Serum samples were subjected to multiplex cytokine analysis for TH1 (IL-2, IL-12, IFN-γ, TNF-α), TH2 (IL-4, IL-5, IL-10, IL-13) and inflammatory cytokines (MIP-1α, IP-10, MIG, IL-1β, IL-6, KC).

[5] = tested on: T-cell surface markers (CD4, CD8, PD-1, CD28); experiment: Experiment 5: T-cell surface markers of spleen lymphocytes by flow cytometry; format: in vivo, human MUC1.Tg C57BL/6 mice; settings: TRIP 100 mg/kg or letrozole 0.8 mg/kg daily oral 14 days
Method: FIG. 11. Lymphocyte phenotypes following different hormonal treatments. (A) CD3+CD4+; (B) CD3+CD8+; (C) CD3+CD28+; (D) CD8+CD28+; (E) CD3+PD-1+; and (F) CD8+PD-1+; T cell surface markers were stained with indicated antibodies after […] of TRIP (100 mg/kg), estradiol (E2; 25 μg/kg), and letrozole (0.8 mg/kg) treatments (n=8 all groups).
as §1, §2

OCCOc1ccc(/C(=C(/CCCl)c2ccccc2)c2ccccc2)cc1 [TRIP, Z-2-[4-(4-chloro-1,2-diphenyl-but-1-enyl)-phenoxy]ethanol]
induction of CTL activity, PV with short-course TRIP compared to TRIP or PV treatments alone [1]: significantly boosted | Tregs (FoxP3+/CD4+) compared to estradiol treatment [2]: significantly inhibited | IFN-γ immune response by ELISpot, TRIP in combination with the PV (IFN-γ [3]): equivalent increase | serum IFN-γ (IFN-γ [4]): elevated | expression of surface markers, including CD8 and CD28, vs control [5]: no difference
